The source of these data is US10219516B2, “Molecules having pesticidal utility, and intermediates, compositions, and processes, related thereto” (priority 2015, dated 2019).

Holding throughout (type): in vivo
The test system of assay [1] is Beet Armyworm (Spodoptera exigua, LAPHEG). The assay can be described thus: Bioassay on Beet Armyworm (BAW), 128-well diet tray assay. Put shortly: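 Second-instar larvae, one to five per well, placed on artificial diet surface-treated with 50 μg/cm^2 compound applied in 90:10 acetone-water and dried. Held 5–7 days at 25° C., 14:10 light-dark. Percent mortality recorded per well and averaged over eight wells.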

Assay [2] concerns Cabbage Looper (Trichoplusia ni, TRIPNI). The assay can be described thus: Bioassay on Cabbage Looper (CL), 128-well diet tray assay. Conditions: Trichoplusia ni. Put shortly: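 Second-instar larvae, one to five per well, were placed on artificial diet surface-treated with 50 μg/cm^2 test molecule applied in 90:10 acetone-water and dried, eight wells per molecule. Trays were covered, vented and held at 25° C., 14:10 light-dark for five to seven days; percent mortality per well was averaged.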

The subject of assay [3] is Yellow Fever Mosquito (Aedes aegypti, AEDSAE). The assay can be described thus: Bioassay on Yellow Fever Mosquito (YFM), 96-well plate larval assay. Conditions: for YFM (Biological Results, rating): Species YFM (Yellow Fever Mosquito); for YFM rating: Yellow Fever Mosquito, 96-well plate larval assay. As for the experimental part:
Certain molecules disclosed in this document were tested against YFM using procedures described in the following paragraph. In the reporting of the results, the “GPA & YFM Rating Table” was used (See Table Section).
Master plates containing 400 μg of a molecule dissolved in 100 μL of dimethyl sulfoxide (DMSO) (equivalent to a 4000 ppm solution) are used. A master plate of assembled molecules contains 15 μL per well. To this plate, 135 μL of a 90:10 water/acetone mixture is added to each well. A robot is programmed to dispense 15 μL aspirations from the master plate into an empty 96-well shallow plate (“daughter” plate). There are 6 reps (“daughter” plates) created per master. The created “daughter” plates are then immediately infested with YFM larvae.
The day before plates are to be treated, mosquito eggs are placed in Millipore water containing liver powder to begin hatching (4 g. into 400 mL). After the “daughter” plates are created using the robot, they are infested with 220 μL of the liver powder/larval mosquito mixture (about 1 day-old larvae). After plates are infested with mosquito larvae, a non-evaporative lid is used to cover the plate to reduce drying. Plates are held at room temperature for 3 days prior to grading. After 3 days, each well is observed and scored based on mortality. The results are indicated in the table entitled “Table ABC: Biological Results” (See Table Section).

The mark [4] stands for this setting: Species BAW (Beet Armyworm), read-out: BAW (Biological Results, rating).
[5] abbreviates: Species CL (Cabbage Looper), read-out: CL (Biological Results, rating).
Where [6] appears, read: Beet Armyworm, 128-well diet tray assay, read-out: BAW rating.
[7] abbreviates: Cabbage Looper, 128-well diet tray assay, read-out: CL rating.

SMILES strings stand for the structures. Like-named read-outs stand apart in the source and are kept apart here.

For the compound `O=C(Nc1ccc(F)cc1F)c1cc(NC(=O)C2C(c3cc(Cl)cc(Cl)c3)C2(Cl)Br)ccc1Cl` (stereo not drawn) [F187, 5-(trans)-2-Bromo-2-chloro-3-(3,5-dichlorophenyl)cyclopropane-1-carboxamido)-2-chloro-N-(2,4-difluorophenyl)benzamide], the pest or weed control at 50 µg/cm2 in assay [1] (setting [4]) and in assay [2] (setting [5]) was 50 to 100% each time. Moreover, the “YFM (Biological Results, rating)” value in assay [3] was “A (80-100)”.
With `CCc1ccc(NC(=O)[C@H]2[C@H](c3cc(Cl)cc(Cl)c3)C2(Cl)Cl)cc1C(=O)Nc1ccc(F)cc1` (relative stereo) [PF8, trans-5-(2,2-Dichloro-3-(3,5-dichlorophenyl)cyclopropanecarboxamido)-2-ethyl-N-(4-fluorophenyl)benzamide], the pest or weed control at 50 µg/cm2 in assay [1] (setting [6]) and in assay [2] (setting [7]) was 50 to 100% each time. In assay [3], the YFM rating result is recorded as “A (80-100)”.
`C=Cc1cc(Cl)cc([C@H]2[C@H](C(=O)Nc3ccc(Cl)c(C(=O)Nc4ccc(F)cc4)c3)C2(Cl)Cl)c1` (relative stereo) [F350, 2-Chloro-5-(trans-2,2-dichloro-3-(3-chloro-5-vinylphenyl)cyclopropane-1-carboxamido)-N-(4-fluorophenyl)benzamide]: the pest or weed control at 50 µg/cm2 in assay [1] (setting [4]) and in assay [2] (setting [5]) was 50 to 100% each time. Moreover, in assay [3], the “YFM (Biological Results, rating)” value was “A (80-100)”.
For the compound `O=C(Nc1ccc2ncoc2c1)c1cc(NC(=O)C2C(c3cc(Cl)cc(Cl)c3)C2(Cl)Cl)ccc1Cl` (stereo not drawn) [F450, N-(Benzo[d]oxazol-6-yl)-2-chloro-5-(trans)-2,2-dichloro-3-(3,5-dichlorophenyl)cyclopropane-1-carboxamido)benzamide], the pest or weed control at 50 µg/cm2 in assay [1] (setting [6]) and in assay [2] (setting [7]) was 50 to 100% each time. The YFM rating result in assay [3] is reported as “A (80-100)”.
Take `Cc1nc2cc(NC(=O)c3cc(NC(=O)C4C(c5cc(Cl)cc(Cl)c5)C4(Cl)Cl)ccc3Cl)ccc2s1` (stereo not drawn) [F455, 2-Chloro-5-(trans)-2,2-dichloro-3-(3,5-dichlorophenyl)cyclopropane-1-carboxamido)-N-(2-methylbenzo[d]thiazol-5-yl)benzamide]: the pest or weed control at 50 µg/cm2 in assay [1] (setting [6]) and in assay [2] (setting [7]) was 50 to 100% each time. Besides, the YFM rating entry in assay [3] is on record as “A (80-100)”.
As to `C=C(F)c1cc(Cl)cc([C@H]2[C@H](C(=O)Nc3ccc(Cl)c(C(=O)Nc4ccc(F)cc4C#N)c3)C2(Cl)Cl)c1` (relative stereo) [F387, 2-Chloro-N-(2-cyano-4-fluorophenyl)-5-(trans-2,2-dichloro-3-(3-chloro-5-(1-fluorovinyl)phenyl)cyclopropane-1-carboxamido)benzamide], the pest or weed control at 50 µg/cm2 in assay [1] (setting [6]) and in assay [2] (setting [7]) was 50 to 100% in each case. Also, the YFM rating result in assay [3] is on record as “A (80-100)”.
On to `CS(=O)(=NC#N)c1ccc(NC(=O)c2cc(NC(=O)C3C(c4cc(Cl)cc(Cl)c4)C3(Cl)Cl)ccc2Cl)cc1` (stereo not drawn) [F502, trans-2-chloro-N-(4-(N-cyano-S-methylsulfonimidoyl)phenyl)-5-(2,2-dichloro-3-(3,5-dichlorophenyl)cyclopropane-1-carboxamido)benzamide], for which the pest or weed control at 50 µg/cm2 in assay [1] (setting [6]) and in assay [2] (setting [7]) was 50 to 100% each time. Besides, the YFM rating entry in assay [3] is “A (80-100)”.
Consider `O=C(Nc1cc(Cl)cc(Cl)c1)c1cc(NC(=O)[C@H]2[C@H](c3cc(Cl)cc(Cl)c3)C2(Cl)Cl)ccc1Cl` (relative stereo) [PF76, trans-2-Chloro-5-(2,2-dichloro-3-(3,5-dichlorophenyl)cyclopropane-1-carboxamido)-N-(3,5-dichlorophenyl)benzamide], for which the pest or weed control at 50 µg/cm2 in assay [1] (setting [6]) and in assay [2] (setting [7]) was 50 to 100% each time. Besides, in assay [3], the YFM rating entry is recorded as “A (80-100)”.
Take `Cc1cc(N)ccc1NC(=O)c1cc(NC(=O)[C@H]2[C@H](c3ccc(Cl)c(Cl)c3)C2(Cl)Cl)ccc1Cl` [F285, N-(4-Amino-2-methylphenyl)-2-chloro-5-((1R,3R)-2,2-dichloro-3-(3,4-dichlorophenyl)cyclopropane-1-carboxamido)benzamide]: the pest or weed control at 50 µg/cm2 in assay [1] (setting [4]) and in assay [2] (setting [5]) was 50 to 100% throughout. For the same compound, the “YFM (Biological Results, rating)” value in assay [3] is on record as “A (80-100)”.
Turning to `Nc1ccc(F)c(NC(=O)c2cc(NC(=O)[C@H]3[C@H](c4cc(Cl)cc(Cl)c4)C3(Cl)Cl)ccc2Cl)c1` [F427, N-(5-Amino-2-fluorophenyl)-2-chloro-5-((1R,3R)-2,2-dichloro-3-(3,5-dichlorophenyl)cyclopropane-1-carboxamido)benzamide], the pest or weed control at 50 µg/cm2 in assay [1] (setting [6]) and in assay [2] (setting [7]) was 50 to 100% in each case. In assay [3], the YFM rating result is on record as “A (80-100)”.
Regarding `O=C(Nc1ccc(F)cc1)c1cc(Cl)cc(NC(=O)[C@H]2[C@H](c3cc(Cl)cc(Cl)c3)C2(Cl)Cl)c1` (relative stereo) [F136, trans-3-Chloro-5-(2,2-dichloro-3-(3,5-dichlorophenyl)cyclopropane-1-carboxamido)-N-(4-fluorophenyl)benzamide], the pest or weed control at 50 µg/cm2 in assay [1] (setting [4]) and in assay [2] (setting [5]) was 50 to 100% throughout. The “YFM (Biological Results, rating)” value in assay [3] is recorded as “A (80-100)”.
Regarding `O=C(Nc1ccc(F)cc1F)c1cc(NC(=O)[C@H]2[C@H](c3cc(Cl)c(Cl)c(Cl)c3)C2(Cl)Cl)ccc1F` (relative stereo) [F75, trans-5-(2,2-Dichloro-3-(3,4,5-trichlorophenyl)cyclopropane-1-carboxamido)-N-(2,4-difluorophenyl)-2-fluorobenzamide], the pest or weed control at 50 µg/cm2 in assay [1] (setting [4]) and in assay [2] (setting [5]) was 50 to 100% throughout. In assay [3], the “YFM (Biological Results, rating)” value is “A (80-100)”.
For the compound `Cc1cc(Cl)cc([C@H]2[C@H](C(=O)Nc3ccc(Cl)c(C(=O)Nc4c(F)cccc4F)c3)C2(Cl)Cl)c1` (relative stereo) [F118, trans-2-Chloro-5-(2,2-dichloro-3-(3-chloro-5-methylphenyl)cyclopropane-1-carboxamido)-N-(2,6-difluorophenyl)benzamide], the pest or weed control at 50 µg/cm2 in assay [1] (setting [4]) and in assay [2] (setting [5]) was 50 to 100% each time. Further, the “YFM (Biological Results, rating)” value in assay [3] is “A (80-100)”.
`Nc1cccc(NC(=O)c2cc(NC(=O)[C@H]3[C@H](c4cc(Cl)cc(Cl)c4)C3(Cl)Cl)ccc2Cl)n1` (relative stereo) [F326, trans-N-(6-aminopyridin-2-yl)-2-chloro-5-(2,2-dichloro-3-(3,5-dichlorophenyl)cyclopropane-1-carboxamido)benzamide]: the pest or weed control at 50 µg/cm2 in assay [1] (setting [4]) and in assay [2] (setting [5]) was 50 to 100% each time. For the same compound, the “YFM (Biological Results, rating)” value in assay [3] is “A (80-100)”.
Regarding `C=Cc1c(F)cc([C@H]2[C@H](C(=O)Nc3ccc(Cl)c(C(=O)Nc4ccc(F)cc4F)c3)C2(Cl)Cl)cc1F` (relative stereo) [F566, 2-Chloro-5-(trans-2,2-dichloro-3-(3,5-difluoro-4-vinylphenyl)cyclopropane-1-carboxamido)-N-(2,4-difluorophenyl)benzamide], the pest or weed control at 50 µg/cm2 in assay [1] (setting [6]) and in assay [2] (setting [7]) was 50 to 100% in each case. In addition, in assay [3], the YFM rating entry is recorded as “A (80-100)”.
`N#Cc1cc(Cl)ccc1NC(=O)c1cc(NC(=O)[C@H]2[C@H](c3cc(Cl)cc(Cl)c3)C2(Cl)Cl)ccc1Cl` (relative stereo) [F301, 2-Chloro-N-(4-chloro-2-cyanophenyl)-5-(trans-2,2-dichloro-3-(3,5-dichlorophenyl)cyclopropane-1-carboxamido)benzamide]: the pest or weed control at 50 µg/cm2 in assay [1] (setting [4]) and in assay [2] (setting [5]) was 50 to 100% in each case. For the same compound, in assay [3], the “YFM (Biological Results, rating)” value is reported as “A (80-100)”.
With `O=C(Nc1ncc(F)cc1F)c1cc(NC(=O)[C@H]2[C@H](c3ccc(C(F)F)cc3)C2(Cl)Cl)ccc1Cl` (relative stereo) [F591, 2-Chloro-5-(trans-2,2-dichloro-3-(4-(difluoromethyl)phenyl)cyclopropane-1-carboxamido)-N-(3,5-difluoropyridin-2-yl)benzamide], the pest or weed control at 50 µg/cm2 in assay [1] (setting [6]) and in assay [2] (setting [7]) was 50 to 100% each time. In addition, the YFM rating result in assay [3] was “A (80-100)”.
For `O=C(Nc1ccc(Cl)c(F)c1)c1cc(NC(=O)C2C(c3cc(Cl)cc(Cl)c3)C2(Cl)Cl)ccc1Cl` (stereo not drawn) [PF123, 2-Chloro-N-(4-chloro-3-fluorophenyl)-5-(trans)-2,2-dichloro-3-(3,5-dichlorophenyl)cyclopropane-1-carboxamido)benzamide], the pest or weed control at 50 µg/cm2 in assay [1] (setting [6]) and in assay [2] (setting [7]) was 50 to 100% throughout. For the same compound, in assay [3], the YFM rating entry is recorded as “A (80-100)”.
